Patent US8541588B2, “Sulfonamide derivatives” (Pfizer Limited, priority 2009, dated 2013)

Target: T1, Nav1.7 (or SCN9A) channel; HEK cells stably transfected with hSCN9A (Homo sapiens, UniProt Q15858)
T1 construct: expressed in transfected cells
Experiment: Nav1.7 block, PatchXpress 7000 automated whole-cell voltage clamp, estimated IC50 (EIC50)
Format: cell-based
Conditions: PatchXpress platform; hSCN9A HEK cells held at V1/2 of inactivation; estimated IC50

T1 sequence (Q15858 whole entry): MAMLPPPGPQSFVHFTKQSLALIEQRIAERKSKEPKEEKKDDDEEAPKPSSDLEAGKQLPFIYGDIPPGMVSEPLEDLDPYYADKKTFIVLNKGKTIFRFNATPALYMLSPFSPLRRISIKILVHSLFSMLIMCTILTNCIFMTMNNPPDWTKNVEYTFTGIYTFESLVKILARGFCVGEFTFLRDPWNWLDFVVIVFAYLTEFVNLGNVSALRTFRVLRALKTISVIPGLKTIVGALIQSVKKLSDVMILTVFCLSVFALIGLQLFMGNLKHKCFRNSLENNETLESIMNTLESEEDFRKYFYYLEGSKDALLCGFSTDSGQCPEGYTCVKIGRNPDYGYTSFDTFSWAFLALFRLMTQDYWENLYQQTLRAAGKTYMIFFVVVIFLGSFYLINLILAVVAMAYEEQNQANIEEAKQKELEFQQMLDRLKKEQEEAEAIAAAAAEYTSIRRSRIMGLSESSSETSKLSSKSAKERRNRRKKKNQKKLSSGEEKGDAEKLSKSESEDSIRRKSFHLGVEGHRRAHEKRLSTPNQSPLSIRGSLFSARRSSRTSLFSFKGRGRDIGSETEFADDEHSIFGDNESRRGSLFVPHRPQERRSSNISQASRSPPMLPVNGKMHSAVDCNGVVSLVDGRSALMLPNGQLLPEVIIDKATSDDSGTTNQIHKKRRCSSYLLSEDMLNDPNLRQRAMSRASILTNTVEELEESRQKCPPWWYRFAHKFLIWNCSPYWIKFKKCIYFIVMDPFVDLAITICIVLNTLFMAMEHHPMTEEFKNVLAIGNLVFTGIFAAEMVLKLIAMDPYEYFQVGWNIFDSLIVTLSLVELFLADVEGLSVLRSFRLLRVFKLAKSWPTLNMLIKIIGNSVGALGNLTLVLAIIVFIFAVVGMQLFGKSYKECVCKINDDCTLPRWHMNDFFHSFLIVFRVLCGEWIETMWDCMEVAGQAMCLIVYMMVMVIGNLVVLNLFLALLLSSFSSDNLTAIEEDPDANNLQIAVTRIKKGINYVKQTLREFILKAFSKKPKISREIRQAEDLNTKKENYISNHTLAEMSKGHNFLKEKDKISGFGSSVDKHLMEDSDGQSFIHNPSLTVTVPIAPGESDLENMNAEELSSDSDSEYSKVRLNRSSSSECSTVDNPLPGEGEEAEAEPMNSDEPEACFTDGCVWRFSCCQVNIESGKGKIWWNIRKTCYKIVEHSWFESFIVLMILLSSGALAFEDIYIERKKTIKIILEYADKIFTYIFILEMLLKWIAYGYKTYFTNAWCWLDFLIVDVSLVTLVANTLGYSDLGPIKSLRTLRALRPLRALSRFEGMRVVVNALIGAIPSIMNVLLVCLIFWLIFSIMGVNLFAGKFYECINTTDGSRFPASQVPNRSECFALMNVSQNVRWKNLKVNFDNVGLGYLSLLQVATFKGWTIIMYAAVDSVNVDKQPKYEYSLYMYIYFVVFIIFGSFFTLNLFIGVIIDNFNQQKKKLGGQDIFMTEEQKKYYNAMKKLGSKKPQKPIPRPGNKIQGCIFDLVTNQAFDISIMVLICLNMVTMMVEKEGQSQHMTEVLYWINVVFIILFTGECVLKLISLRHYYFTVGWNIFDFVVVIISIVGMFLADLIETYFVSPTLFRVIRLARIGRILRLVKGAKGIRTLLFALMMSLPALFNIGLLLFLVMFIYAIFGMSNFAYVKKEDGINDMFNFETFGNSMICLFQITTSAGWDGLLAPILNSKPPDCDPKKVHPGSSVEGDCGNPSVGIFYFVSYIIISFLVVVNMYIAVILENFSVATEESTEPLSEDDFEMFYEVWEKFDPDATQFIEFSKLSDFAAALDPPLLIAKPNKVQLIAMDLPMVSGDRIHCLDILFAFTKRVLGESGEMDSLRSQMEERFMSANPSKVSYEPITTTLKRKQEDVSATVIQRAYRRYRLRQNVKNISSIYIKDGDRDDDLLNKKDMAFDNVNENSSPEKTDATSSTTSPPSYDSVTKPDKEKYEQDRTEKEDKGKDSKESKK

| Structure (SMILES) | IC50 [µM] |
| --- | --- |
| O=S(=O)(Nc1nccs1)c1ccc(Oc2ccc(Oc3ccccc3)cc2)c(F)c1 [Example 127, 3-fluoro-4-(4-phenoxyphenoxy)-N-1,3-thiazol-2-ylbenzenesulfonamide] | >10 |
| N#Cc1cc(S(=O)(=O)Nc2ncns2)ccc1Oc1cc(C(F)(F)F)nn1Cc1ccccc1 [Example 80, 4-{[1-benzyl-3-(trifluoromethyl)-1H-pyrazol-5-yl]oxy}-3-cyano-N-1,2,4-thiadiazol-5-ylbenzenesulfonamide] | >0.3 |
| N#Cc1cc(S(=O)(=O)Nc2ncns2)ccc1Oc1cc(C(F)(F)F)nn1-c1ccccc1 [Example 81, 3-cyano-4-{[1-phenyl-3-(trifluoromethyl)-1H-pyrazol-5-yl]oxy}-N-1,2,4-thiadiazol-5-ylbenzenesulfonamide] | 0.51 |
| CCn1nc(C(F)(F)F)cc1-c1ccc(Oc2ccc(S(=O)(=O)Nc3nccs3)cc2C#N)cc1 [Example 280, 3-cyano-4-[4-(2-ethyl-5-trifluoromethyl-2H-pyrazol-3-yl)-phenoxy]-N-thiazol-2-yl-benzenesulfonamide] | 0.09 |
| CC(C)(C)n1nccc1-c1cc(F)ccc1Oc1ccc(S(=O)(=O)Nc2nccs2)cc1F [Example 217, 4-(2-(1-tert-butyl-1H-pyrazol-5-yl)-4-fluorophenoxy)-3-fluoro-N-(thiazol-2-yl)benzenesulfonamide] | 0.51 |
| N#Cc1cc(S(=O)(=O)Nc2ncns2)ccc1Oc1ccccc1-c1cc(F)cc(F)c1 [Example 53, 3-cyano-4-[(3′,5′-difluorobiphenyl-2-yl)oxy]-N-1,2,4-thiadiazol-5-ylbenzenesulfonamide] | 3.54 |

Same assay, conditions: estimated IC50; hSCN9A HEK cells, PatchXpress platform; Examples 283-814

| Structure (SMILES) | IC50 [µM] |
| --- | --- |
| O=S(=O)(Nc1ncns1)c1cc(F)c(Oc2cc(Cl)c(F)cc2-c2cn[nH]c2)cc1F [Example 752, 4-[5-chloro-4-fluoro-2-(1H-pyrazol-4-yl)phenoxy]-2,5-difluoro-N-1,2,4-thiadiazol-5-ylbenzenesulfonamide] | 0.0021 |
| Cn1nccc1-c1cc(OC(F)(F)F)ccc1Oc1ccc(S(=O)(=O)Nc2nccs2)cc1F [Example 365, 3-fluoro-4-[2-(1-methyl-1H-pyrazol-5-yl)-4-(trifluoromethoxy)phenoxy]-N-1,3-thiazol-2-ylbenzenesulfonamide] | 0.069 |
| N#Cc1cc(S(=O)(=O)Nc2cscn2)ccc1Oc1ccc(Cl)cc1-c1cnn(C(F)F)c1 [Example 394, 4-{4-chloro-2-[1-(difluoromethyl)-1H-pyrazol-4-yl]phenoxy}-3-cyano-N-1,3-thiazol-4-ylbenzenesulfonamide] | 2.9 |
| N#Cc1cc(S(=O)(=O)Nc2nccs2)ccc1Oc1ccc(-n2cccn2)cc1C(F)(F)F [Example 491, 3-cyano-4-[4-(1H-pyrazol-1-yl)-2-(trifluoromethyl)phenoxy]-N-1,3-thiazol-2-ylbenzenesulfonamide] | >1 |
| N#Cc1cnc(NS(=O)(=O)c2ccc(Oc3ccccc3-c3ccccc3)c(C#N)c2)nc1 [Example 432, 4-(biphenyl-2-yloxy)-3-cyano-N-(5-cyanopyrimidin-2-yl)benzenesulfonamide] | >10 |
| Cn1nccc1-c1cc(F)ccc1Oc1ccc(S(=O)(=O)Nc2ccncn2)cc1Cl [Example 669, 3-Chloro-4-[4-fluoro-2-(1-methyl-1H-pyrazol-5-yl)phenoxy]-N-pyrimidin-4-ylbenzenesulfonamide] | 0.2 |
| O=S(=O)(Nc1nccs1)c1cc(F)c(Oc2ccc(Cl)cc2-c2cn[nH]c2)cc1F [Example 679, 4-[4-chloro-2-(1H-pyrazol-4-yl)phenoxy]-2,5-difluoro-N-1,3-thiazol-2-ylbenzenesulfonamide] | 0.031 |
| N#Cc1cc(S(=O)(=O)Nc2ncc(F)cn2)ccc1Oc1ccccc1-c1ccccc1 [Example 427, 4-(biphenyl-2-yloxy)-3-cyano-N-(5-fluoropyrimidin-2-yl)benzenesulfonamide] | 4.3 |
| Cc1[nH]ncc1-c1cc(Cl)ccc1Oc1ccc(S(=O)(=O)Nc2nccs2)cc1C#N [Example 546, 4-[4-chloro-2-(5-methyl-1H-pyrazol-4-yl)phenoxy]-3-cyano-N-1,3-thiazol-2-ylbenzenesulfonamide] | 0.02 |
| Cn1nncc1-c1cc(F)ccc1Oc1cc(F)c(S(=O)(=O)Nc2cscn2)cc1Cl [Example 523, 5-chloro-2-fluoro-4-[4-fluoro-2-(1-methyl-1H-1,2,3-triazol-5-yl)phenoxy]-N-1,3-thiazol-4-ylbenzenesulfonamide] | 2.6 |
| CCn1nc(C(F)(F)F)cc1-c1ccc(Oc2cc(F)c(S(=O)(=O)Nc3nccs3)cc2Cl)cc1 [Example 305, 5-chloro-4-{4-[1-ethyl-3-(trifluoromethyl)-1H-pyrazol-5-yl]phenoxy}-2-fluoro-N-1,3-thiazol-2-ylbenzenesulfonamide] | 0.097 |
| O=S(=O)(Nc1ncns1)c1ccc(Oc2ccc(F)cc2-c2ccn[nH]2)c(Cl)c1 [Example 478, 3-chloro-4-[4-fluoro-2-(1H-pyrazol-5-yl)phenoxy]-N-1,2,4-thiadiazol-5-ylbenzenesulfonamide] | 0.044 |
| COCc1cc(C(F)F)nn1-c1cccc(Oc2ccc(S(=O)(=O)Nc3nccs3)cc2C#N)c1 [Example 654, 3-cyano-4-{3-[3-(difluoromethyl)-5-(methoxymethyl)-1H-pyrazol-1-yl]phenoxy}-N-1,3-thiazol-2-ylbenzenesulfonamide] | 1.1 |
| N#Cc1cc(S(=O)(=O)Nc2ncns2)ccc1Oc1ccc(Cl)cc1C1CCNCC1 [Example 505, 4-(4-chloro-2-piperidin-4-ylphenoxy)-3-cyano-N-1,2,4-thiadiazol-5-ylbenzenesulfonamide] | 0.05 |
| N#Cc1cc(S(=O)(=O)Nc2nccs2)ccc1Oc1ccc(Cl)cc1-c1c[nH]nc1N [Example 706, 4-[2-(3-amino-1H-pyrazol-4-yl)-4-chlorophenoxy]-3-cyano-N-1,3-thiazol-2-ylbenzenesulfonamide] | 0.026 |
| N#Cc1cc(S(=O)(=O)Nc2ncc(Cl)s2)ccc1Oc1ccc(Cl)cc1-c1ccnn1C(F)F [Example 595, 4-{4-Chloro-2-[1-(difluoromethyl)-1H-pyrazol-5-yl]phenoxy}-N-(5-chloro-1,3-thiazol-2-yl)-3-cyanobenzenesulfonamide] | 0.08 |
| N#Cc1cc(S(=O)(=O)Nc2ncns2)ccc1Oc1cc(Cl)c(F)cc1-c1ccn[nH]1 [Example 751, 4-[5-chloro-4-fluoro-2-(1H-pyrazol-5-yl)phenoxy]-3-cyano-N-1,2,4-thiadiazol-5-ylbenzenesulfonamide] | 0.013 |
| Cn1nccc1-c1cc(Cl)ccc1Oc1ccc(S(=O)(=O)Nc2ncc(Cl)cn2)cc1C#N [Example 464, 4-[4-chloro-2-(1-methyl-1H-pyrazol-5-yl)phenoxy]-N-(5-chloropyrimidin-2-yl)-3-cyanobenzenesulfonamide] | 6 |
| Nc1cccc(-c2cc(Cl)ccc2Oc2cc(F)c(S(=O)(=O)Nc3ncns3)cc2F)n1 [Example 409, 4-[2-(6-aminopyridin-2-yl)-4-chlorophenoxy]-2,5-difluoro-N-1,2,4-thiadiazol-5-ylbenzenesulfonamide] | 0.019 |

Same assay, conditions: estimated IC50; hSCN9A HEK cells, PatchXpress platform; Examples 815-1040

| Structure (SMILES) | IC50 [µM] |
| --- | --- |
| Cc1cc(S(=O)(=O)Nc2nncs2)c(F)cc1Oc1ccc(OC(F)(F)F)cc1-c1ccnnc1 [Example 1037, 2-fluoro-5-methyl-4-[2-pyridazin-4-yl-4-(trifluoromethoxy)phenoxy]-N-1,3,4-thiadiazol-2-ylbenzenesulfonamide] | 0.012 |
| O=S(=O)(Nc1nncs1)c1cc(F)c(Oc2ccc(Cl)cc2-c2ccnc(N3CCNCC3)c2)cc1F [Example 833, 4-[4-chloro-2-(2-piperazin-1-ylpyridin-4-yl)phenoxy]-2,5-difluoro-N-1,3,4-thiadiazol-2-ylbenzenesulfonamide] | 0.0059 |
| COC(=O)c1cccc(-c2cc(Cl)ccc2Oc2ccc(S(=O)(=O)Nc3ncns3)cc2C#N)c1 [Example 1003, methyl 5′-chloro-2′-{2-cyano-4-[(1,2,4-thiadiazol-5-ylamino)sulfonyl]phenoxy}biphenyl-3-carboxylate] | 0.02 |
| N#Cc1cnn(-c2ccc(Oc3ccc(S(=O)(=O)Nc4nccs4)cc3C#N)cc2)c1 [Example 994, 3-cyano-4-[4-(4-cyano-1H-pyrazol-1-yl)phenoxy]-N-1,3-thiazol-2-ylbenzenesulfonamide] | 9.5 |
| N#Cc1cc(S(=O)(=O)Nc2cscn2)ccc1Oc1ccc(Cl)cc1-c1ccnc(N2CCNCC2)c1 [Example 834, 4-[4-chloro-2-(2-piperazin-1-ylpyridin-4-yl)phenoxy]-3-cyano-N-1,3-thiazol-4-ylbenzenesulfonamide] | 0.0039 |
| N#Cc1ccc(-c2cc(Cl)ccc2Oc2ccc(S(=O)(=O)Nc3ncns3)cc2C#N)nc1 [Example 853, 4-[4-chloro-2-(5-cyanopyridin-2-yl)phenoxy]-3-cyano-N-1,2,4-thiadiazol-5-ylbenzenesulfonamide] | 0.74 |
| N#Cc1cc(S(=O)(=O)Nc2ncns2)ccc1Oc1ccc(Cl)cc1C1CNC1 [Example 906, 4-(2-azetidin-3-yl-4-chlorophenoxy)-3-cyano-N-1,2,4-thiadiazol-5-ylbenzenesulfonamide] | 0.057 |
| Cc1cnccc1-c1cc(Cl)ccc1Oc1ccc(S(=O)(=O)Nc2ncns2)cc1C#N [Example 1011, 4-[4-chloro-2-(3-methylpyridin-4-yl)phenoxy]-3-cyano-N-1,2,4-thiadiazol-5-ylbenzenesulfonamide] | 0.028 |
| Cn1nccc1-c1cc(Cl)ccc1Oc1ccc(S(=O)(=O)/N=c2\sccn2COP(=O)(O)O)cc1C#N [Example 1039, [(2Z)-2-[({4-[4-Chloro-2-(1-methyl-1H-pyrazol-5-yl)phenoxy]-3-cyanophenyl}sulfonyl)imino]-1,3-thiazol-3(2H)-yl]methyl dihydrogen phosphate] | 0.31 |
| N#Cc1cc(S(=O)(=O)Nc2ncns2)ccc1Oc1ccc(Cl)cc1-c1cccc(CN2CC(F)(F)C2)n1 [Example 874, 4-(4-chloro-2-{6-[(3,3-difluoroazetidin-1-yl)methyl]pyridin-2-yl}phenoxy)-3-cyano-N-1,2,4-thiadiazol-5-ylbenzenesulfonamide] | 0.35 |
